Source: patent US20210323977A1, “PYRROLIDINYL AMIDE COMPOUNDS FOR THE TREATMENT OF AUTOIMMUNE DISEASE” (Hoffmann-La Roche Inc., priority 2018, published 2021)

Each molecule was assayed against T1, human TLR9 (Homo sapiens, UniProt Q9NR96) (assay: HEK293-Blue-hTLR-9 cells assay). Conditions: HEK293-Blue-hTLR9 cells, SEAP reporter, ODN2006 stimulation, 20 hrs.
T1 sequence (Q9NR96 26-1032): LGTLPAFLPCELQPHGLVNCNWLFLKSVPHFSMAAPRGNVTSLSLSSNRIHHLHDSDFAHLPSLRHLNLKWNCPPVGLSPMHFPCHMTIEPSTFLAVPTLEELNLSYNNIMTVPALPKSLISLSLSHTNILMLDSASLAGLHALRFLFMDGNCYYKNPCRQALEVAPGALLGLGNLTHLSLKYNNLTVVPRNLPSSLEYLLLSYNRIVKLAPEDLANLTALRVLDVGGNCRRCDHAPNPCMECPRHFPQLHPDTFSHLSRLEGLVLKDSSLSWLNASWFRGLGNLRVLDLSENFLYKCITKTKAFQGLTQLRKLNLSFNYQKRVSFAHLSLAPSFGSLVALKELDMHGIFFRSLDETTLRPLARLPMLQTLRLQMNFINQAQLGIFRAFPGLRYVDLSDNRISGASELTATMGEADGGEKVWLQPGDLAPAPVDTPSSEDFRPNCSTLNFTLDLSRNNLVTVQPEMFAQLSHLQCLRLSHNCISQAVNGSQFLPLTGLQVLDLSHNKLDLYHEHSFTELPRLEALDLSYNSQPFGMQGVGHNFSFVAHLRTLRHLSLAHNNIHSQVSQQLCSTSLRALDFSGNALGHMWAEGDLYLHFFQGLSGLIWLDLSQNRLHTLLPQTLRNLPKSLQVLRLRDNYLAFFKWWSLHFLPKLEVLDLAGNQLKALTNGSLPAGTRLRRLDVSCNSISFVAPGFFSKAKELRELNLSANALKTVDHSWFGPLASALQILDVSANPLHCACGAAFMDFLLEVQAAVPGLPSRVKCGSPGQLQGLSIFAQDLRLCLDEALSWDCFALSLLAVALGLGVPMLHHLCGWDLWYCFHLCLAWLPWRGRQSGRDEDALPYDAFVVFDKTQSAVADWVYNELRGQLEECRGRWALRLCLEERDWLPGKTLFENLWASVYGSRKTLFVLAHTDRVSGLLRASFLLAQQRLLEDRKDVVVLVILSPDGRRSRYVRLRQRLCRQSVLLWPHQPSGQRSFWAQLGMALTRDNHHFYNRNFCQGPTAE
Type: cell-based
From the text: HEK293-Blue-hTLR-9 Cells Assay:
A stable HEK293-Blue-hTLR-9 cell line was purchased from InvivoGen (Cat. #: hkb-htlh9, San Diego, Calif., USA). These cells were originally designed for studying the stimulation of human TLR9 by monitoring the activation of NF-κB. A SEAP (secreted embryonic alkaline phosphatase) reporter gene was placed under the control of the IFN-β minimal promoter fused to five NF-κB and AP-1-binding sites. The SEAP was induced by activating NF-κB and AP-1 via stimulating HEK-Blue hTLR9 cells with TLR9 ligands. Therefore the reporter expression was declined by TLR9 antagonist under the stimulation of a ligand, such as ODN2006 (Cat. #: tlrl-2006-1, Invivogen, San Diego, Calif., USA), for incubation of 20 hrs. The cell culture supernatant SEAP reporter activity was determined using QUANTI-Blue™ kit (Cat. #: rep-qb1, Invivogen, San Diego, Calif., USA) at a wavelength of 640 nm, a detection medium that turns purple or blue in the presence of alkaline phosphatase.
HEK293-Blue-hTLR9 cells were incubated at a density of 250,000-450,000 cells/mL in a volume of 170 μL in a 96-well plate in Dulbecco's Modified Eagle's medium (DMEM) containing 4.5 g/L glucose, 50 U/mL penicillin, […], […], 2 mM L-glutamine, 10% (v/v) heat-inactivated fetal bovine serum with addition of 20 sL test compound in a serial dilution in the presence of final DMSO at 1% and 10 sL of 20 uM ODN2006 in above DMEM, perform incubation under 37° C. in a CO2 incubator for 20 hrs. Then 20 sL of the supernatant from each well was incubated with 180 μL Quanti-blue substrate solution at 37° C. for 2 hrs and the absorbance was read at 620-655 nm using a spectrophotometer. The signalling pathway that TLR9 activation leads to downstream NF-x3B activation has been widely accepted, and therefore similar reporter assay was modified for evaluating TLR9 antagonist.

Structure (SMILES)	IC50
CN1CCC(NC(=O)[C@@H]2CN(c3ccc(C#N)c4ncccc34)C[C@H]2C2CC2)CC1 (relative stereo) [Example 14, Trans-1-(8-cyano-5-quinolyl)-4-cyclopropyl-N-(1-methyl-4-piperidyl)pyrrolidine-3-carboxamide]	4.5 µM
CN1CCC(NC(=O)[C@@H]2CN(c3ccc(C#N)c4ncccc34)C[C@H]2C(F)(F)F)CC1 (relative stereo) [Example 17, Trans-1-(8-cyano-5-quinolyl)-N-(1-methyl-4-piperidyl)-4-(trifluoromethyl)pyrrolidine-3-carboxamide]	1 µM
C[C@@H]1CN(c2ccc(C#N)c3ncccc23)C[C@H]1C(=O)NC1CCN(C)CC1 (relative stereo) [Example 28]	6.4 µM
CC[C@@H]1CN(c2ccc(C#N)c3ncccc23)C[C@H]1C(=O)NC1CCN(C)CC1 (relative stereo) [Example 29, Trans-1-(8-cyano-5-quinolyl)-4-ethyl-N-(1-methyl-4-piperidyl)pyrrolidine-3-carboxamide]	6.9 µM
C[C@@H]1CN(c2ccc(C#N)c3ncccc23)C[C@H]1C(=O)N1CCC2(CCNCC2)CC1 (relative stereo) [Example 32, Trans-5-[3-(3,9-diazaspiro[5.5]undecane-3-carbonyl)-4-methyl-pyrrolidin-1-yl]quinoline-8-carbonitrile]	2.4 µM
CC(C)[C@@H]1CN(c2ccc(C#N)c3ncccc23)C[C@H]1C(=O)NC1CCN(C)CC1 (relative stereo) [Example 37, Trans-1-(8-cyano-5-quinolyl)-4-isopropyl-N-(1-methyl-4-piperidyl)pyrrolidine-3-carboxamide]	5.2 µM
CN1CCC(NC(=O)[C@@H]2CN(c3ccc(C#N)c4ncccc34)C[C@H]2C(F)F)CC1 (relative stereo) [Example 40, Trans-1-(8-cyano-5-quinolyl)-4-(difluoromethyl)-N-(1-methyl-4-piperidyl)pyrrolidine-3-carboxamide]	6.9 µM
N[C@@H]1CCC[C@H](NC(=O)C2CN(c3ccc(C(F)(F)F)c4nccnc34)CC23CC3)C1 (relative stereo) [Example 43, Cis-N-(3-aminocyclohexyl)-5-[8-(trifluoromethyl)quinoxalin-5-yl]-5-azaspiro[2.4]heptane-7-carboxamide]	17.9 µM
CN1CCC(NC(=O)[C@@H]2CN(c3ccc(Cl)c4ncccc34)C[C@H]2C(F)(F)F)CC1 (relative stereo) [Example 46, Trans-1-(8-chloro-5-quinolyl)-N-(1-methyl-4-piperidyl)-4-(trifluoromethyl)pyrrolidine-3-carboxamide]	15.6 µM
C[C@@H]1CN(c2ccc(C#N)c3ncccc23)C[C@H]1C(=O)N1CCC2(CCNC2)C1 (relative stereo) [Example 53, Trans-5-[3-(2,7-diazaspiro[4.4]nonane-2-carbonyl)-4-methyl-pyrrolidin-1-yl]quinoline-8-carbonitrile]	2.6 µM
CN1CCC(NC(=O)C2CN(c3ccc(C#N)c4nccnc34)CC23CC3)CC1 (single isomer, unassigned) [Example 7A, 5-(8-Cyanoquinoxalin-5-yl)-N-(1-methyl-4-piperidyl)-5-azaspiro[2.4]heptane-7-carboxamide]	3.2 µM
CN1CCC(NC(=O)C2CN(c3ccc(C#N)c4nccnc34)CC23CC3)CC1 (single isomer, unassigned) [Example 7B, 5-(8-Cyanoquinoxalin-5-yl)-N-(1-methyl-4-piperidyl)-5-azaspiro[2.4]heptane-7-carboxamide]	3.3 µM
N#Cc1ccc(N2CC(C(=O)NC3CCCNCC3)C(C(F)(F)F)C2)c2cccnc12 (single isomer, unassigned) [Example 30A, N-(azepan-4-yl)-1-(8-cyano-5-quinolyl)-4-(trifluoromethyl)pyrrolidine-3-carboxamide]	17.5 µM
N#Cc1ccc(N2CC(C(=O)NC3CCCNCC3)C(C(F)(F)F)C2)c2cccnc12 (single isomer, unassigned) [Example 30B, N-(azepan-4-yl)-1-(8-cyano-5-quinolyl)-4-(trifluoromethyl)pyrrolidine-3-carboxamide]	16.2 µM
CN1CCC(NC(=O)C2CN(c3ccc(C#N)c4ncccc34)CC23CC3)CC1 (single isomer, unassigned) [Example 41A, 5-(8-Cyano-5-quinolyl)-N-(1-methyl-4-piperidyl)-5-azaspiro[2.4]heptane-7-carboxamide]	4.5 µM
C[C@@H]1CN(c2ccc(C#N)c3ncccc23)C[C@H]1C(=O)NC1CCCNCC1 (single isomer, unassigned) [Example 52A, Trans-N-(azepan-4-yl)-1-(8-cyano-5-quinolyl)-4-methyl-pyrrolidine-3-carboxamide]	12.3 µM
C[C@@H]1CN(c2ccc(C#N)c3ncccc23)C[C@H]1C(=O)NC1CCCNCC1 (single isomer, unassigned) [Example 52B, Trans-N-(azepan-4-yl)-1-(8-cyano-5-quinolyl)-4-methyl-pyrrolidine-3-carboxamide]	11.6 µM
N#Cc1ccc(N2CC(C(=O)NC[C@H]3CNCCO3)C3(CC3)C2)c2nccnc12 (single isomer, unassigned) [Example 70A]	6.9 µM
N#Cc1ccc(N2CC(C(=O)NC[C@H]3CNCCO3)C3(CC3)C2)c2nccnc12 (single isomer, unassigned) [Example 70B]	2.8 µM
N#Cc1ccc(N2CC(C(=O)NC[C@@H]3CNCCO3)C3(CC3)C2)c2nccnc12 (single isomer, unassigned) [Example 71A]	3.8 µM
N#Cc1ccc(N2CC(C(=O)NC[C@@H]3CNCCO3)C3(CC3)C2)c2nccnc12 (single isomer, unassigned) [Example 71B]	1.9 µM
CN1CCC(NC(=O)[C@H]2CN(c3ccc(C#N)c4nccnc34)C[C@@H]2C(F)(F)F)CC1 [Example 1, (3R,4R)-1-(8-cyanoquinoxalin-5-yl)-N-(1-methyl-4-piperidyl)-4-(trifluoromethyl) pyrrolidine-3-carboxamide]	5.2 µM
CN1CCC(NC(=O)[C@H]2CN(c3ccc(C(F)(F)F)c4nccnc34)C[C@@H]2C(F)(F)F)CC1 [Example 2, (3R,4R)—N-(1-methyl-4-piperidyl)-4-(trifluoromethyl)-1-[8-(trifluoromethyl)quinoxalin-5-yl]pyrrolidine-3-carboxamide]	5.5 µM
C[C@H]1CN(c2ccc(C#N)c3nccnc23)C[C@@H]1C(=O)NC1CCN(C)CC1 [Example 3, (3R,4R)-1-(8-cyanoquinoxalin-5-yl)-4-methyl-N-(1-methyl-4-piperidyl)pyrrolidine-3-carboxamide]	5.7 µM
CN1CCC(NC(=O)[C@H]2CN(c3ccc(C#N)c4ncccc34)C[C@@H]2C(F)(F)F)CC1 [Example 4, (3R,4R)-1-(8-cyano-5-quinolyl)-N-(1-methyl-4-piperidyl)-4-(trifluoromethyl)pyrrolidine-3-carboxamide]	9.9 µM
C[C@H]1CN(c2ccc(C(F)(F)F)c3nccnc23)C[C@@H]1C(=O)NC1CCN(C)CC1 [Example 5, (3R,4R)-4-methyl-N-(1-methyl-4-piperidyl)-1-[8-(trifluoromethyl)quinoxalin-5-yl]pyrrolidine-3-carboxamide]	10.4 µM
